Assay results from the NIST ThermoML archive (doi:10.1016/j.jct.2005.07.011).
± gives the expanded uncertainty stated by the source.

Test: excess molar enthalpy (molar enthalpy of mixing); xn = mol fraction of the nth substance listed
Conditions: Liquid, Flow calorimetry

COC(=O)OC [dimethyl carbonate] + CCCCO
Conditions | excess molar enthalpy [kcal/mol]
298.15 K, 1000 kPa, x1 = 0.05 | 0.127 ± 0.0043
298.15 K, 1000 kPa, x1 = 0.1 | 0.232 ± 0.0043
298.15 K, 1000 kPa, x1 = 0.15 | 0.317 ± 0.0043
298.15 K, 1000 kPa, x1 = 0.2 | 0.383 ± 0.00454
298.15 K, 1000 kPa, x1 = 0.25 | 0.435 ± 0.00454
298.15 K, 1000 kPa, x1 = 0.3 | 0.4733 ± 0.00454
298.15 K, 1000 kPa, x1 = 0.35 | 0.5011 ± 0.00478
298.15 K, 1000 kPa, x1 = 0.4 | 0.5163 ± 0.00478
298.15 K, 1000 kPa, x1 = 0.45 | 0.5253 ± 0.00454
298.15 K, 1000 kPa, x1 = 0.5 | 0.5258 ± 0.00454
298.15 K, 1000 kPa, x1 = 0.55 | 0.5155 ± 0.0043
298.15 K, 1000 kPa, x1 = 0.6 | 0.4945 ± 0.0043
298.15 K, 1000 kPa, x1 = 0.65 | 0.4683 ± 0.00406
298.15 K, 1000 kPa, x1 = 0.7 | 0.4353 ± 0.00359
298.15 K, 1000 kPa, x1 = 0.75 | 0.3916 ± 0.00335
298.15 K, 1000 kPa, x1 = 0.8 | 0.3364 ± 0.00287
298.15 K, 1000 kPa, x1 = 0.85 | 0.2695 ± 0.00229
298.15 K, 1000 kPa, x1 = 0.9 | 0.1907 ± 0.00167
298.15 K, 1000 kPa, x1 = 0.95 | 0.09904 ± 0.000956
313.15 K, 100 kPa, x1 = 0.049 | 0.125 ± 0.00454
313.15 K, 100 kPa, x1 = 0.099 | 0.235 ± 0.00454
313.15 K, 100 kPa, x1 = 0.149 | 0.329 ± 0.0043
313.15 K, 100 kPa, x1 = 0.199 | 0.404 ± 0.0043
313.15 K, 100 kPa, x1 = 0.25 | 0.4635 ± 0.0043
313.15 K, 100 kPa, x1 = 0.299 | 0.5061 ± 0.0043
313.15 K, 100 kPa, x1 = 0.351 | 0.5395 ± 0.00454
313.15 K, 100 kPa, x1 = 0.4 | 0.5598 ± 0.00454
313.15 K, 100 kPa, x1 = 0.449 | 0.5716 ± 0.00454
313.15 K, 100 kPa, x1 = 0.499 | 0.5732 ± 0.00454
313.15 K, 100 kPa, x1 = 0.549 | 0.5667 ± 0.00454
313.15 K, 100 kPa, x1 = 0.6 | 0.5459 ± 0.00454
313.15 K, 100 kPa, x1 = 0.651 | 0.5157 ± 0.0043
313.15 K, 100 kPa, x1 = 0.699 | 0.4762 ± 0.0043
313.15 K, 100 kPa, x1 = 0.751 | 0.427 ± 0.00406
313.15 K, 100 kPa, x1 = 0.8 | 0.368 ± 0.00406
313.15 K, 100 kPa, x1 = 0.85 | 0.299 ± 0.00406
313.15 K, 100 kPa, x1 = 0.899 | 0.204 ± 0.0043
313.15 K, 100 kPa, x1 = 0.949 | 0.108 ± 0.00406
313.15 K, 1000 kPa, x1 = 0.049 | 0.127 ± 0.00454
313.15 K, 1000 kPa, x1 = 0.099 | 0.238 ± 0.00454
313.15 K, 1000 kPa, x1 = 0.149 | 0.331 ± 0.0043
313.15 K, 1000 kPa, x1 = 0.199 | 0.406 ± 0.0043
313.15 K, 1000 kPa, x1 = 0.25 | 0.4659 ± 0.0043
313.15 K, 1000 kPa, x1 = 0.299 | 0.5082 ± 0.0043
313.15 K, 1000 kPa, x1 = 0.35 | 0.5426 ± 0.00454
313.15 K, 1000 kPa, x1 = 0.399 | 0.5625 ± 0.00454
313.15 K, 1000 kPa, x1 = 0.449 | 0.572 ± 0.00454
313.15 K, 1000 kPa, x1 = 0.499 | 0.5728 ± 0.00454
313.15 K, 1000 kPa, x1 = 0.549 | 0.5639 ± 0.00454
313.15 K, 1000 kPa, x1 = 0.6 | 0.5428 ± 0.00454
313.15 K, 1000 kPa, x1 = 0.651 | 0.5125 ± 0.0043
313.15 K, 1000 kPa, x1 = 0.699 | 0.4734 ± 0.0043
313.15 K, 1000 kPa, x1 = 0.751 | 0.4239 ± 0.00406
313.15 K, 1000 kPa, x1 = 0.8 | 0.368 ± 0.00406
313.15 K, 1000 kPa, x1 = 0.849 | 0.296 ± 0.00406
313.15 K, 1000 kPa, x1 = 0.899 | 0.206 ± 0.0043
313.15 K, 1000 kPa, x1 = 0.949 | 0.105 ± 0.00406
313.15 K, 10000 kPa, x1 = 0.049 | 0.124 ± 0.00454
313.15 K, 10000 kPa, x1 = 0.101 | 0.24 ± 0.00454
313.15 K, 10000 kPa, x1 = 0.151 | 0.332 ± 0.0043
313.15 K, 10000 kPa, x1 = 0.202 | 0.405 ± 0.0043
313.15 K, 10000 kPa, x1 = 0.249 | 0.4604 ± 0.0043
313.15 K, 10000 kPa, x1 = 0.3 | 0.5061 ± 0.0043
313.15 K, 10000 kPa, x1 = 0.349 | 0.5364 ± 0.00454
313.15 K, 10000 kPa, x1 = 0.401 | 0.5586 ± 0.00454
313.15 K, 10000 kPa, x1 = 0.451 | 0.5694 ± 0.00454
313.15 K, 10000 kPa, x1 = 0.501 | 0.5711 ± 0.00454
313.15 K, 10000 kPa, x1 = 0.551 | 0.5597 ± 0.00454
313.15 K, 10000 kPa, x1 = 0.602 | 0.5408 ± 0.00454
313.15 K, 10000 kPa, x1 = 0.65 | 0.513 ± 0.00454
313.15 K, 10000 kPa, x1 = 0.75 | 0.4247 ± 0.00406
313.15 K, 10000 kPa, x1 = 0.799 | 0.368 ± 0.00406
313.15 K, 10000 kPa, x1 = 0.849 | 0.293 ± 0.00406
313.15 K, 10000 kPa, x1 = 0.899 | 0.21 ± 0.0043
313.15 K, 10000 kPa, x1 = 0.949 | 0.105 ± 0.0043
328.15 K, 1000 kPa, x1 = 0.05 | 0.129 ± 0.00478
328.15 K, 1000 kPa, x1 = 0.1 | 0.243 ± 0.00478
328.15 K, 1000 kPa, x1 = 0.15 | 0.341 ± 0.00454
328.15 K, 1000 kPa, x1 = 0.2 | 0.418 ± 0.00478
328.15 K, 1000 kPa, x1 = 0.25 | 0.4826 ± 0.00478
328.15 K, 1000 kPa, x1 = 0.3 | 0.531 ± 0.00502
328.15 K, 1000 kPa, x1 = 0.35 | 0.5685 ± 0.00502
328.15 K, 1000 kPa, x1 = 0.4 | 0.5957 ± 0.00526
328.15 K, 1000 kPa, x1 = 0.45 | 0.6082 ± 0.00526
328.15 K, 1000 kPa, x1 = 0.5 | 0.6094 ± 0.00526
328.15 K, 1000 kPa, x1 = 0.55 | 0.602 ± 0.00502
328.15 K, 1000 kPa, x1 = 0.6 | 0.5832 ± 0.00478
328.15 K, 1000 kPa, x1 = 0.65 | 0.5542 ± 0.00454
328.15 K, 1000 kPa, x1 = 0.7 | 0.513 ± 0.0043
328.15 K, 1000 kPa, x1 = 0.75 | 0.4578 ± 0.00382
328.15 K, 1000 kPa, x1 = 0.8 | 0.3918 ± 0.00335
328.15 K, 1000 kPa, x1 = 0.85 | 0.3191 ± 0.00263
328.15 K, 1000 kPa, x1 = 0.9 | 0.2231 ± 0.00191
328.15 K, 1000 kPa, x1 = 0.95 | 0.114 ± 0.0011

CC(C)(C)O [2-methylpropan-2-ol] + COC(=O)OC
excess molar enthalpy [kcal/mol], 1000 kPa
Conditions | 298.15 K | 328.15 K
x2 = 0.05 | 0.128 ± 0.00454 | 0.124 ± 0.0043
x2 = 0.1 | 0.237 ± 0.00454 | 0.229 ± 0.0043
x2 = 0.15 | 0.329 ± 0.0043 | 0.319 ± 0.0043
x2 = 0.2 | 0.404 ± 0.0043 | 0.399 ± 0.0043
x2 = 0.25 | 0.468 ± 0.0043 | 0.462 ± 0.0043
x2 = 0.3 | 0.5164 ± 0.00454 | 0.5154 ± 0.00454
x2 = 0.35 | 0.554 ± 0.00478 | 0.5556 ± 0.00478
x2 = 0.4 | 0.5848 ± 0.00478 | 0.5831 ± 0.00478
x2 = 0.45 | 0.6031 ± 0.00478 | 0.602 ± 0.00478
x2 = 0.5 | 0.6101 ± 0.00502 | 0.6083 ± 0.00502
x2 = 0.55 | 0.605 ± 0.00502 | 0.6034 ± 0.00478
x2 = 0.6 | 0.5876 ± 0.00478 | 0.5891 ± 0.00478
x2 = 0.65 | 0.5647 ± 0.00478 | 0.5623 ± 0.00478
x2 = 0.7 | 0.5272 ± 0.00454 | 0.5257 ± 0.00454
x2 = 0.75 | 0.4738 ± 0.00454 | 0.4695 ± 0.00454
x2 = 0.8 | 0.412 ± 0.00454 | 0.411 ± 0.00454
x2 = 0.9 | 0.252 ± 0.0043 | 0.245 ± 0.0043
x2 = 0.95 | 0.134 ± 0.00478 | 0.128 ± 0.00478
